Tests used:
[1] = target: T1, Mineralocorticoid receptor (Homo sapiens, UniProt P08235)
T1 sequence (P08235 whole entry): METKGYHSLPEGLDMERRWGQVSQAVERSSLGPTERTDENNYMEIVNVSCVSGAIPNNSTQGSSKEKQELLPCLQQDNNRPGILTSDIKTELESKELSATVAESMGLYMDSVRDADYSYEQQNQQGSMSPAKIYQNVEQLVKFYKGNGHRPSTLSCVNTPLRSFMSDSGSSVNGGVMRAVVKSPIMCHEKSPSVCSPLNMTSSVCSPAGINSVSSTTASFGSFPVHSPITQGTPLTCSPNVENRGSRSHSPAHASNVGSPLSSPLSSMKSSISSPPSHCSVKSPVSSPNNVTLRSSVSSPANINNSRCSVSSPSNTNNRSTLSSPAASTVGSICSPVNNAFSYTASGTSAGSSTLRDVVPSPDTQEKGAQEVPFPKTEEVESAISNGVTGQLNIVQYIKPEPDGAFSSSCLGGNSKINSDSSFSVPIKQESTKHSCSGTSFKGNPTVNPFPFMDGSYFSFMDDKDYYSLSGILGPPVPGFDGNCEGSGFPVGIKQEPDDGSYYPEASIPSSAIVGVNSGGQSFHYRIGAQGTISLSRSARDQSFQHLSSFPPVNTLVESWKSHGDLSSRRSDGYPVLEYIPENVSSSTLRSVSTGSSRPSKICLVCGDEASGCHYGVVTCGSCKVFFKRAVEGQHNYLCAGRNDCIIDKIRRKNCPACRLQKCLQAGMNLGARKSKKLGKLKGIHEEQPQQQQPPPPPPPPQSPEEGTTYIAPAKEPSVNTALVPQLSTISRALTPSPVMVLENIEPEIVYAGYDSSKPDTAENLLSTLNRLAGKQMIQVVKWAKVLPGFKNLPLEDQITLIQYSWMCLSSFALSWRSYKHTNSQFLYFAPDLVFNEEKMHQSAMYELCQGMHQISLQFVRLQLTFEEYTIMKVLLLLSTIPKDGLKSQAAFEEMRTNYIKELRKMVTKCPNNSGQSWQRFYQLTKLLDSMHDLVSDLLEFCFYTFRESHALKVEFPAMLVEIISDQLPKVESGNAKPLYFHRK
Description: Antagonist activity at mineralocorticoid receptor LBD expressed in human HUH7 cells coexpressing GAL4 by luciferase reporter gene assay

[2] = target: T2, Androgen receptor (Homo sapiens, UniProt P10275); test: Antagonist activity at androgen receptor LBD expressed in human HUH7 cells coexpressing GAL4 by luciferase reporter gene assay; type: functional, cell-based, Huh-7
T2 sequence (P10275 whole entry): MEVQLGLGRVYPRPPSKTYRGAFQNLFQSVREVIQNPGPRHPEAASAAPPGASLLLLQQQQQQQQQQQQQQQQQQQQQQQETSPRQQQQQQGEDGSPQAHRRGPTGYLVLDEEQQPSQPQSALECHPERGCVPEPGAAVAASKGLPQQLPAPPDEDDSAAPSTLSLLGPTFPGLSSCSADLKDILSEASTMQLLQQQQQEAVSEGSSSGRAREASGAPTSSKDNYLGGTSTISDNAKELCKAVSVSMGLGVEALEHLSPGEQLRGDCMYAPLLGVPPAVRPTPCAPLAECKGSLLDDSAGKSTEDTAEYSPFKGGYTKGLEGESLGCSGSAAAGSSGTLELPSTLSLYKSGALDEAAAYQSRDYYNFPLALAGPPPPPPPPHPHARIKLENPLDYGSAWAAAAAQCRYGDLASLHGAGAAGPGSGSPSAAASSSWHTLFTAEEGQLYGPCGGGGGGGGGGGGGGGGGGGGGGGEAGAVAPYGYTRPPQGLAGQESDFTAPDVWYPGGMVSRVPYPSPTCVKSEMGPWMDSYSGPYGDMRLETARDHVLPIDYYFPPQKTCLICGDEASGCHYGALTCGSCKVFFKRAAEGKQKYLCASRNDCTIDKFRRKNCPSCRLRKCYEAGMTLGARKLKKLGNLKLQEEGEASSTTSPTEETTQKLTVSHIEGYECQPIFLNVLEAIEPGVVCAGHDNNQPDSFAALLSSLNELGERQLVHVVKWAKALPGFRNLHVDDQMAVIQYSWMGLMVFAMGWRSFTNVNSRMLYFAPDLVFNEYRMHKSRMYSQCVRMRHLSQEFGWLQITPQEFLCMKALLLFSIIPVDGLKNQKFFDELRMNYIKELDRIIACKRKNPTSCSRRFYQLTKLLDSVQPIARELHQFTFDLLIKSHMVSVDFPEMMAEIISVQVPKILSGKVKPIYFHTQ

[3] = target: T3, Progesterone receptor (Homo sapiens, UniProt P06401); test: Antagonist activity at progesterone receptor LBD expressed in human HUH7 cells coexpressing GAL4 by luciferase reporter gene assay; type: functional, cell-based, Huh-7
T3 sequence (P06401 whole entry): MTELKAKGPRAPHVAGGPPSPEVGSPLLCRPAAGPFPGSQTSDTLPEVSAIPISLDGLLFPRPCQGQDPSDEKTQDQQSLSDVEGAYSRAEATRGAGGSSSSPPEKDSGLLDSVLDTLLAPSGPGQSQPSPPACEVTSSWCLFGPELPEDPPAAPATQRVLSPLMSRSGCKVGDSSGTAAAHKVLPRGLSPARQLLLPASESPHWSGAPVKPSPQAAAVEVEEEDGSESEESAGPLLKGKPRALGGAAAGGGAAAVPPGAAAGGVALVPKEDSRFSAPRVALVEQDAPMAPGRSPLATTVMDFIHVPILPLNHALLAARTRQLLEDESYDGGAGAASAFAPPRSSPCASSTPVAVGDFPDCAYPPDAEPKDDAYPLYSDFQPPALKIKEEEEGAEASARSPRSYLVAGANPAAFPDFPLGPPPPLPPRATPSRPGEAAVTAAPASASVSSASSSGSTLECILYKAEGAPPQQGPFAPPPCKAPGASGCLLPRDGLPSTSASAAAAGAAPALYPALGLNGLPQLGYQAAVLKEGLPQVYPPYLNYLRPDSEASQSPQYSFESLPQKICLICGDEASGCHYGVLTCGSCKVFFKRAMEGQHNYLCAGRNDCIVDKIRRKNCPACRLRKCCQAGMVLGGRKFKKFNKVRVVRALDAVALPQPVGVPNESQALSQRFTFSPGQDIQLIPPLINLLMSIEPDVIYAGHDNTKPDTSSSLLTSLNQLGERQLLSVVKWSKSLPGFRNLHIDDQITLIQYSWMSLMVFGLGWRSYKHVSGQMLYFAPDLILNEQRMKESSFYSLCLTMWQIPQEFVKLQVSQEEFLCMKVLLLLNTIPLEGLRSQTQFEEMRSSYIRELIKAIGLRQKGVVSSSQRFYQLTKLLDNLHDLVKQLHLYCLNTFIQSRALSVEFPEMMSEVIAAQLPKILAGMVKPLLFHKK

[4] = test system: Liver microsomes; test: Metabolic stability in rat liver microsomes assessed as compound remaining; type: ADME, Microsome; further: time not given here
[5] = target: T4, Glucocorticoid receptor (Homo sapiens, UniProt P04150); test: Antagonist activity at glucocorticoid receptor LBD expressed in human HUH7 cells coexpressing GAL4 by luciferase reporter gene assay; type: functional, cell-based, Huh-7
T4 sequence (P04150 whole entry): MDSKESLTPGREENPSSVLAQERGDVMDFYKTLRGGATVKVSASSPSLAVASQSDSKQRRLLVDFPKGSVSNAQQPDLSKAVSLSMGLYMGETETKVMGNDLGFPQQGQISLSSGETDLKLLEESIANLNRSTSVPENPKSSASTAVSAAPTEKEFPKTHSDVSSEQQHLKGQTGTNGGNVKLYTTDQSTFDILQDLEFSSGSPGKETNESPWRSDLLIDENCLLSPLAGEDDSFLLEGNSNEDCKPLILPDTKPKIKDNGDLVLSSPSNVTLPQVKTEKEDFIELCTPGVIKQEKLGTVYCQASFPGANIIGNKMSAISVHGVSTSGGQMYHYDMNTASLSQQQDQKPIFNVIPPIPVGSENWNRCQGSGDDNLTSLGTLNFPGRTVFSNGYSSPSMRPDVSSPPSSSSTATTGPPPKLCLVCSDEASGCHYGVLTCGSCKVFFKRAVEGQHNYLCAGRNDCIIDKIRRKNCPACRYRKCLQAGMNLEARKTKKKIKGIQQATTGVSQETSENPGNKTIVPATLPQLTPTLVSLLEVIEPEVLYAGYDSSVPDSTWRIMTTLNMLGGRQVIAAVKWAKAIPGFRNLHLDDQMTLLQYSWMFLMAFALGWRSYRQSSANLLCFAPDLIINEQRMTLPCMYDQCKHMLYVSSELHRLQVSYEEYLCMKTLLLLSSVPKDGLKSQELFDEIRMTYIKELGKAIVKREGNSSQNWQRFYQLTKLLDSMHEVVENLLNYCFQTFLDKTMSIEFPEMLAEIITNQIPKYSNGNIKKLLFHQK

[6] = Solubility of the compound; type: physicochemical
[7] = test system: Liver microsomes; test: Metabolic stability in human liver microsomes assessed as compound remaining; type: ADME, Microsome; further: time not given here

Row | IC50 [1] [nM] | other results | SMILES
1 | 574 |  | COC(=O)C1=C(C)NC(C)=C(C(=O)OC(C)(C)C)C1c1ccc(Cl)c(F)c1 (centres undefined)
2 | 275 |  | COC(=O)C1=C(C(F)(F)F)N(C)C(C)=C(C#N)C1c1ccc(F)cc1Cl (centres undefined)
3 | 12000 |  | COC(=O)C1=C(C)NC(C)=C(C(=O)OC(C)(C)C)C1c1ccc(C)cc1 (centres undefined)
4 | 2620 |  | COC(=O)C1=C(C)NC(C)=C(C(=O)OC(C)(C)C)C1c1ccc(OC)cc1 (centres undefined)
5 | 2790 |  | COC(=O)C1=C(C)NC(C)=C(C(=O)OC(C)(C)C)C1c1cccc(C)c1 (centres undefined)
6 | 2570 |  | COC(=O)C1=C(C)NC(C)=C(C(=O)OC(C)(C)C)C1c1ccc(O)cc1 (centres undefined)
7 | 594 |  | COC(=O)C1=C(C)NC(C)=C(C#N)C1c1ccccc1Cl (centres undefined)
8 | 3740 |  | COCCN1C(C)=C(C#N)C(c2ccc(F)cc2F)C(C(=O)OC(C)(C)C)=C1C (centres undefined)
9 | 2830 |  | COC(=O)C1=C(C)NC(C)=C(C(=O)OC(C)(C)C)C1c1cccc(O)c1 (centres undefined)
10 | 288 |  | COC(=O)C1=C(C)NC(C)=C(C(=O)OC(C)(C)C)C1c1ccc(F)cc1 (centres undefined)
11 | 852 |  | COC(=O)C1=C(Cc2ccccc2)NC(C)=C(C#N)C1c1ccccc1Cl (centres undefined)
12 | 7430 |  | CCCC1=C(C(=O)OC)C(c2ccccc2)C(C#N)=C(C)N1 (centres undefined)
13 | 553 |  | COC(=O)C1=C(C)NC(C)=C(C(=O)OC(C)(C)C)C1c1ccccc1OC (centres undefined)
14 | 309 |  | COC(=O)C1=C(C)NC(C)=C(C(=O)OC(C)(C)C)C1c1ccc(C(F)(F)F)cc1 (centres undefined)
15 | 78 |  | COC(=O)C1=C(C)NC(C)=C(C(=O)OC(C)(C)C)C1c1ccc(F)cc1Cl (centres undefined)
16 | 224 |  | COC(=O)C1=C(C)NC(C)=C(C(=O)OC(C)(C)C)C1c1ccccc1C(F)(F)F (centres undefined)
17 | 923 |  | CCOC(=O)C1=C(c2ccccc2)NC(C)=C(C#N)C1c1ccccc1Cl (centres undefined)
18 | 58 | IC50 [2]: 900 nM; IC50 [3]: 300 nM; Stability [4]: 3%; IC50 [5]: 1600 nM; solubility [6]: < 5 µM; Stability [7]: 11% | CCCCC1=C(C(=O)OC)C(c2ccccc2Cl)C(C#N)=C(C)N1 (centres undefined)
